# Experimental data: patent US20190133933A1, “FORMULATIONS AND METHODS FOR REDUCTION OF INTRAOCULAR PRESSURE” (CLEARSIDE BIOMEDICAL, INC., priority 2016, published 2019)
# Test system: normotensive dogs
# Assay: Poststudy efficacy challenge: single topical ocular dose, IOP followed for 24 hours
# Type: in vivo, female beagle dogs
# Description: IOP was measured by using a TonoVet according to a study-specific procedure. IOP measurements consisted of three independent readings per eye per time point from each eye. Following approximately 4 weeks of washout, animals in both groups were administered latanoprost in the right eye and phosphate-buffered saline (PBS) in the left eye, and IOP measurements were followed for 24 hours. As applicable, the dosing solution was drawn up into a 1-mL luer-lock syringe using a standard 21-gauge, 1-inch needle. Bubbles were expressed and the standard needle was replaced by a 30-gauge microneedle 1100 μm in length. […] Following the injection, the needle was kept in the eye for approximately 10 seconds before being withdrawn. Upon withdrawal of the microneedle, a cotton-tipped applicator (CTA, dose wipe) was placed over the injection site for approximately 10 seconds. The right eye was dosed first and all post-dose times were based on the time of dosing of the second (left) eye.
# Approximately 8 weeks after dose administration, all animals underwent a poststudy efficacy challenge. A positive displacement pipette was used to administer a single 35-μL dose of latanoprost to the right eye and phosphate-buffered saline (PBS) to the left eye. IOP was measured prior to dose administration (approximately −1 and 0 hours), and at 2, 4, 6, 8, and 24 hours following treatment. […]
smiles,measurement,setting,value
CC(C)OC(=O)CCC/C=C\C[C@@H]1[C@@H](CC[C@@H](O)CCc2ccccc2)[C@H](O)C[C@@H]1O [Latanoprost],effect on IOP,right eyes vs PBS left eyes kept at about baseline (FIGS. 13-16),decreased the IOP
same,mean maximum effective decrease (Emax) in IOP values,"single 35-μL topical ocular dose, right eye, Groups 1 and 2",3-5 mm Hg
